In PubChem BioAssay AID1259407 (Chemical Carcinogenesis Research Information System (CCRIS), 2018) one finds mutagenic call data, which are given here for seven molecules.

For the data set, the system named is CCRIS mutagenicity, Ames/micronucleus/aberration tests. As to the kind of experiment: CCRIS mutagenicity studies. Conditions: Test System: AMES SALMONELLA TYPHIMURIUM
The mark [1] stands for this setting: Strain/Indicator: TA98, Metabolic Activation: NONE, Method: STANDARD PLATE.
[2] abbreviates: Strain/Indicator: TA100, Metabolic Activation: NONE, Method: STANDARD PLATE.
Where [3] appears, read: Strain/Indicator: TA97, Metabolic Activation: NONE, Method: PREINCUBATION
Where [4] appears, read: Strain/Indicator: TA98, Metabolic Activation: NONE, Method: PREINCUBATION
The mark [5] stands for this setting: Strain/Indicator: TA100, Metabolic Activation: NONE, Method: PREINCUBATION
The mark [6] stands for this setting: Strain/Indicator: TA1535, Metabolic Activation: NONE, Method: PREINCUBATION
The mark [7] stands for this setting: Strain/Indicator: TA1537, Metabolic Activation: NONE, Method: PREINCUBATION
Setting [8] is: Strain/Indicator: TA98, Metabolic Activation: RAT, LIVER, S-9, AROCLOR 1254, Method: STANDARD PLATE.
Setting [9] is: Strain/Indicator: TA100, Metabolic Activation: RAT, LIVER, S-9, AROCLOR 1254, Method: STANDARD PLATE.

Each structure is given as a SMILES string. Activity calls are given as the source filed them. The rule behind the calls is not given here.

As for `O=[N+]([O-])c1ccc(-c2nc(N(CCO)CCO)c3ccccc3n2)s1`, the mutagenic call is “active; positive” under setting [1] and “active; positive” under setting [2].

Consider `OC1c2ccc3cccnc3c2C2OC2C1O` (stereo not drawn), for which the mutagenic call under setting [2] was “active; positive”.

Consider `Nc1cccc2c(=O)[nH][nH]c(=O)c12`, for which the mutagenic call reads like this: (Strain/Indicator: TA97, Metabolic Activation: HAMSTER, LIVER, S-9, AROCLOR 1254 (10 OR 30%), Method: PREINCUBATION) “inactive; negative”; under setting [3], “inactive; negative”; (Strain/Indicator: TA97, Metabolic Activation: RAT, LIVER, S-9, AROCLOR 1254 (10 OR 30%), Method: PREINCUBATION) “inactive; negative”; (Strain/Indicator: TA98, Metabolic Activation: HAMSTER, LIVER, S-9, AROCLOR 1254 (10 OR 30%), Method: PREINCUBATION) “inactive; negative”; under setting [4], “inactive; negative”; (Strain/Indicator: TA98, Metabolic Activation: RAT, LIVER, S-9, AROCLOR 1254 (10 OR 30%), Method: PREINCUBATION) “inactive; negative”. For the same molecule, the mutagenic call was “inactive; negative” (Strain/Indicator: TA100, Metabolic Activation: HAMSTER, LIVER, S-9, AROCLOR 1254 (10 OR 30%), Method: PREINCUBATION); “inactive; negative” under setting [5]; “inactive; negative” (Strain/Indicator: TA100, Metabolic Activation: RAT, LIVER, S-9, AROCLOR 1254 (10 OR 30%), Method: PREINCUBATION); “inactive; negative” (Strain/Indicator: TA1535, Metabolic Activation: HAMSTER, LIVER, S-9, AROCLOR 1254 (10 OR 30%), Method: PREINCUBATION); “inactive; negative” under setting [6]; “inactive; negative” (Strain/Indicator: TA1535, Metabolic Activation: RAT, LIVER, S-9, AROCLOR 1254 (10 OR 30%), Method: PREINCUBATION). Further, the mutagenic call by setting is: (Strain/Indicator: TA1537, Metabolic Activation: HAMSTER, LIVER, S-9, AROCLOR 1254 (10 OR 30%), Method: PREINCUBATION) “inactive; negative”; under setting [7], “inactive; negative”; (Strain/Indicator: TA1537, Metabolic Activation: RAT, LIVER, S-9, AROCLOR 1254 (10 OR 30%), Method: PREINCUBATION) “inactive; negative”.

On to `COC(=O)c1ccc(C)cc1`, for which the mutagenic call (Strain/Indicator: TA97, Metabolic Activation: HAMSTER, LIVER, S-9, AROCLOR 1254 (10%), Method: PREINCUBATION) was “inactive; negative”; the mutagenic call (Strain/Indicator: TA97, Metabolic Activation: HAMSTER, LIVER, S-9, AROCLOR 1254 (30%), Method: PREINCUBATION) is “inactive; negative”; the mutagenic call under setting [3] is “inactive; negative”; the mutagenic call (Strain/Indicator: TA97, Metabolic Activation: RAT, LIVER, S-9, AROCLOR 1254 (10%), Method: PREINCUBATION) is “inactive; negative”; the mutagenic call (Strain/Indicator: TA97, Metabolic Activation: RAT, LIVER, S-9, AROCLOR 1254 (30%), Method: PREINCUBATION) is “inactive; negative”; the mutagenic call (Strain/Indicator: TA98, Metabolic Activation: HAMSTER, LIVER, S-9, AROCLOR 1254 (10%), Method: PREINCUBATION) was “inactive; negative”. The mutagenic call was “inactive; negative” (Strain/Indicator: TA98, Metabolic Activation: HAMSTER, LIVER, S-9, AROCLOR 1254 (30%), Method: PREINCUBATION); “inactive; negative” under setting [4]; “inactive; negative” (Strain/Indicator: TA98, Metabolic Activation: RAT, LIVER, S-9, AROCLOR 1254 (10%), Method: PREINCUBATION); “inactive; negative” (Strain/Indicator: TA98, Metabolic Activation: RAT, LIVER, S-9, AROCLOR 1254 (30%), Method: PREINCUBATION); “inactive; negative” (Strain/Indicator: TA100, Metabolic Activation: HAMSTER, LIVER, S-9, AROCLOR 1254 (10%), Method: PREINCUBATION); “inactive; negative” (Strain/Indicator: TA100, Metabolic Activation: HAMSTER, LIVER, S-9, AROCLOR 1254 (30%), Method: PREINCUBATION). Also, the mutagenic call was “inactive; negative” under setting [5]; “inactive; negative” (Strain/Indicator: TA100, Metabolic Activation: RAT, LIVER, S-9, AROCLOR 1254 (10%), Method: PREINCUBATION); “inactive; negative” (Strain/Indicator: TA100, Metabolic Activation: RAT, LIVER, S-9, AROCLOR 1254 (30%), Method: PREINCUBATION); “inactive; negative” (Strain/Indicator: TA1535, Metabolic Activation: HAMSTER, LIVER, S-9, AROCLOR 1254 (10%), Method: PREINCUBATION); “inactive; negative” (Strain/Indicator: TA1535, Metabolic Activation: HAMSTER, LIVER, S-9, AROCLOR 1254 (30%), Method: PREINCUBATION); “inactive; negative” under setting [6]. Also, the mutagenic call is, setting by setting: (Strain/Indicator: TA1535, Metabolic Activation: RAT, LIVER, S-9, AROCLOR 1254 (10%), Method: PREINCUBATION) “inactive; negative”; (Strain/Indicator: TA1535, Metabolic Activation: RAT, LIVER, S-9, AROCLOR 1254 (30%), Method: PREINCUBATION) “inactive; negative”; (Strain/Indicator: TA1537, Metabolic Activation: HAMSTER, LIVER, S-9, AROCLOR 1254 (30%), Method: PREINCUBATION) “inactive; negative”; under setting [7], “inactive; negative”; (Strain/Indicator: TA1537, Metabolic Activation: RAT, LIVER, S-9, AROCLOR 1254 (30%), Method: PREINCUBATION) “inactive; negative”.

Consider `[Cl][Sn]([Cl])([c]1ccccc1)[c]1ccccc1`, for which the mutagenic call was “inactive; negative” (Strain/Indicator: TA98, Metabolic Activation: NONE, Method: SUSPENSION/PLATE) and “inactive; negative” (Strain/Indicator: TA100, Metabolic Activation: NONE, Method: SUSPENSION/PLATE).

Take `O=C(OCc1ccccc1)c1cccc2cccnc12`: the mutagenic call runs as follows: under setting [1], “inactive; negative”; under setting [8], “inactive; negative”; under setting [2], “inactive; negative”; under setting [9], “inactive; negative”; (Strain/Indicator: TA1535, Metabolic Activation: NONE, Method: STANDARD PLATE) “inactive; negative”; (Strain/Indicator: TA1535, Metabolic Activation: RAT, LIVER, S-9, AROCLOR 1254, Method: STANDARD PLATE) “inactive; negative”. The mutagenic call reads like this: (Strain/Indicator: TA1537, Metabolic Activation: NONE, Method: STANDARD PLATE) “inactive; negative”; (Strain/Indicator: TA1537, Metabolic Activation: RAT, LIVER, S-9, AROCLOR 1254, Method: STANDARD PLATE) “inactive; negative”.

For the molecule `Nc1ccccc1SCCSc1ccccc1N`, the mutagenic call is, setting by setting: under setting [8], “inactive; negative”; under setting [9], “active; positive”.
